Data taken from publication PMC9226124, “Macrocycle-stabilization of its interaction with 14-3-3 increases plasma membrane localization and activity of CFTR” (Nature Communications, 2022).
Where “and” joins values, the source holds several entries; their conditions need not be identical. Identical values can stand only once. Entries after “also recorded” stand apart in the source; their conditions may differ.

What was measured:
[1] = target: T1, FITC-labeled CFTRpS753pS768 peptide (no 14-3-3) (Homo sapiens, UniProt P13569); experiment: Dose-response FP control assay in the absence of 14-3-3; type: binding; settings: for FP signal: No 14-3-3; for Polarization in the absence of 14-3-3, background subtracted: replicates
T1 construct: made in house; host or cells: synthetic peptide
T1 sequence (P13569 747-774 limits assumed): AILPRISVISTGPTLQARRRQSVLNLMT
Procedure: The 14-3-3β concentration used for the FP screening assay was 10 μM (dashed line). c HTS FP assay of the Cyclenium library. The samples contain 100 nM of FITC-CFTR_pS753pS768 peptide, 10 μM 14-3-3β, and 50 μM compound. FC-A (100 µM) was added as a positive control and DMSO as the negative control. Hit compounds are defined as a polarization increase which is higher than 20% of the response of FC-A. Red squares are compounds that appeared positive in the negative control without 14-3-3. […] Background polarization was subtracted from all values, n = 3 technical replicates. Compounds selected for further analysis are indicated with an asterisk. e Polarization in the absence of 14-3-3. […] Source data are provided as a Source Data file.
The FITC-labeled peptides were dissolved in FP buffer (10 mM HEPES pH 7.4, 150 mM NaCl, 0.1% Tween20, 1 mg/mL BSA) to a final concentration of 100 nM or 10 nM. For the dose-response assays, a 14-3-3β concentration of 10 μM was used while titrating the compounds in a two-times dilution series and, for the other assays, a dilution series of 14-3-3β was made with constant concentration of compound. The dilution series were made in 384 Corning Black Round Bottom well plates and their polarization was measured with a Tecan Infinite F500 plate reader (ex. = 485 nm, em. = 535 nm). The method of fitting of the curves was: “log(agonist) vs. response – Variable slope (four parameters)” from GraphPad Prism. The equation is Y = Bottom + (Top-Bottom)/(1 + 10^((LogEC50-X)*HillSlope)).

[2] = target: T2, 14-3-3/full-length CFTR interaction (Homo sapiens, UniProt P13569, DEL508-508); experiment: Immunoprecipitation (pull-down) from HEK293 cells expressing F508del-CFTR; type: cell-based; settings: 24 h, 10 μM
T2 construct: expressed in transfected cells; host or cells: HEK 293 cells expressing F508del-CFTR (Carlile et al. 2015)
T2 sequence (P13569 with tags, fused parts or gaps DEL508-508): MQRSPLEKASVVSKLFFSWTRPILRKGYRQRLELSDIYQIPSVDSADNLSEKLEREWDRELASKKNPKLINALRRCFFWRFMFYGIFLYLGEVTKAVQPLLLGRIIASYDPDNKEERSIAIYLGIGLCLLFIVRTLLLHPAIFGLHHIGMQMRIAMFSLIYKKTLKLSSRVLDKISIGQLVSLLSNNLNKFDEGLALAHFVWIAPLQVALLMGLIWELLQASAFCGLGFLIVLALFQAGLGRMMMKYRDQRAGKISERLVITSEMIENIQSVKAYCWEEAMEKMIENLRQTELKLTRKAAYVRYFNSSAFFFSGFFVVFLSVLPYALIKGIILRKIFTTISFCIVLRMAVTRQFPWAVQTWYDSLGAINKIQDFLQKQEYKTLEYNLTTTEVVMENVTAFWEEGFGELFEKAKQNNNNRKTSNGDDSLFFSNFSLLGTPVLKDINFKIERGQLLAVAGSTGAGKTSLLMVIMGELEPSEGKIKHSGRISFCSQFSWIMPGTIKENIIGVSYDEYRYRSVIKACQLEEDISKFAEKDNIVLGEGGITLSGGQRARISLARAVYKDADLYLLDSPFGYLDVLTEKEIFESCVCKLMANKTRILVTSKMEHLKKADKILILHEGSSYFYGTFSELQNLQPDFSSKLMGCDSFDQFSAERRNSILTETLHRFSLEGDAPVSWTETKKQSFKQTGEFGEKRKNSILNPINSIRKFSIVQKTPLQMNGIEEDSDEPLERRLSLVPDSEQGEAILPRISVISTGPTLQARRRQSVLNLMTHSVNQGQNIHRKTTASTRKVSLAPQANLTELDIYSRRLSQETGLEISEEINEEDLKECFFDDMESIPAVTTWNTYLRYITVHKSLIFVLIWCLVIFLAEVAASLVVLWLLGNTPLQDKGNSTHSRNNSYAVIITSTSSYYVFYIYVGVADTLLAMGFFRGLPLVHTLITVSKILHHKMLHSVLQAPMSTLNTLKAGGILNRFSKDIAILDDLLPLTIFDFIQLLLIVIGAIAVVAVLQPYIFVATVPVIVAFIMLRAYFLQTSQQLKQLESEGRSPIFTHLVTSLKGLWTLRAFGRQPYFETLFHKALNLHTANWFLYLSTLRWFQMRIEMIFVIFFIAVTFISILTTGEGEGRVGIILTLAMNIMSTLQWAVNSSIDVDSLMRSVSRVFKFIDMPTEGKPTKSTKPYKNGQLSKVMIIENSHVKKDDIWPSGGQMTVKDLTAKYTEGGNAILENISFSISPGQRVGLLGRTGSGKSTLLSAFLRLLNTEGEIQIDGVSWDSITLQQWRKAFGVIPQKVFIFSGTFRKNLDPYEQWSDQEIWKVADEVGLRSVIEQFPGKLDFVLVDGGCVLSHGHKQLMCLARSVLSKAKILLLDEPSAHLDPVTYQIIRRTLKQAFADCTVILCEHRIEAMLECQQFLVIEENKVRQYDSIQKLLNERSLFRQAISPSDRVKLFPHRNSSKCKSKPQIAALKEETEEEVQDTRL
Procedure: Background polarization was subtracted from all values, n = 3 technical replicates. g Immunoprecipitation study to show the effect of CY007424 on the interaction between of CFTR and 14-3-3 proteins. CFTR and separately 14-3-3 immunoprecipitation from HEK293 cells expressing F508del-CFTR after 24 h of CY007424 (10μM) (424) or vehicle alone (CON). LYS: cellular lysate prior to preclear, SUP: supernatant after specific bead incubation, PC: second preclear, LW: last wash after the immunoprecipitation IP are the specific antibody beads. IP, upper blot: probed with CFTR AB, lower blot: probed with 14-3-3 AB. Source data are provided as a Source Data file.
CFTR monoclonal-mAb (M3A7, ab270238 abcam) and 14-3-3 monoclonal-Rbt-Ab (Y62, ab32560 abcam) were separately covalently linked to Protein A–Sepharose (Pharmacia, NJ, U.S.A.) by cross-linking with dimethyl pimelimidate (DMP) utilizing standard procedures.
Briefly, Protein A–Sepharose beads were washed two times in 0.2 M sodium borate, pH 9.0 for 5 min each. The beads were then mixed with antibody (for 1 mL of beads use 0.5 mg of antibody). These were placed on a rotator and mixed continuously for 2 h at room temperature (RT). The beads were washed with sodium borate twice, followed by one wash with 0.2 M triethanolamine, pH 8.5. An equal volume of 40 mM DMP in 0.2 M triethanolamine was added. The mixture was mixed for 1 h at RT and the beads then collected. The beads were incubated in 0.2 M ethanolamine, pH 8.2 for 5 min at RT. Beads were washed with the sodium borate solution, and stored at 4 °C until use. Beads were rinsed in lysis buffer before use.
Once HEK 293 cells expressing F508del-CFTR (cells earlier described by Carlile et al. 2015)[29] were treated, they were harvested and immunoprecipitated as follows. Cells were washed twice in sterile TBS, trypsin-treated and transferred to a Falcon tube with media and sera and centrifuged at 800 g at RT for 5 min. Pellets were washed twice in TBS prewarmed to 37 °C and centrifuged at 800–1000 g for 5 min at 4 °C. […]

Compound | FP signal ([1]; compound 476.8 pM) | FP signal ([1]; compound 953.7 pM) | FP signal ([1]; compound 1.90735e-9 M) | FP signal ([1]; compound 3.8147e-9 M) | FP signal ([1]; compound 7.6294e-9 M) | FP signal ([1]; compound 1.52588e-8 M) | FP signal ([1]; compound 3.05176e-8 M) | FP signal ([1]; compound 6.10352e-8 M) | FP signal ([1]; compound 1.2207e-7 M) | FP signal ([1]; compound 2.44141e-7 M) | FP signal ([1]; compound 4.88281e-7 M) | FP signal ([1]; compound 9.76563e-7 M) | FP signal ([1]; compound 1.95313e-6 M) | FP signal ([1]; compound 3.90625e-6 M) | FP signal ([1]; compound 7.8125e-6 M) | FP signal ([1]; compound 1.5625e-5 M) | FP signal ([1]; compound 3.125e-5 M) | FP signal ([1]; compound 6.25e-5 M) | FP signal ([1]; compound 0.000125 M) | FP signal ([1]; compound 0.00025 M) | other results
N=C(N)NCCCC1NCc2ccccc2Sc2ccccc2CNC(=O)C(Cc2ccc(O)cc2)NC(=O)C(CCCN)NC1=O (stereo not drawn) [CY007424] | 4 | 5 | 5 | 7 | 4 | 7 | 6 | 5 | 5 | 7 | 7 | 7 | 6 | 12 | 27 | 52 | 122 | 193 | 244 | 263 | FP signal ([1]; compound 0.0005 M): 257; FP signal ([1]; compound 0.001 M): 271; stabilizing effect on the 14-3-3/CFTR interaction in cells (pull-down) [2]: stabilizing effect; also recorded: increased CFTR binding to 14-3-3
CC1NC(=O)C(CCCNC(=N)N)NC(=O)C2CCCN2Cc2cccc(c2)-c2ccccc2CNC(=O)C(CCCNC(=N)N)NC1=O (stereo not drawn) [CY007476] | 1 | 3 | 2 | 5 | 5 | 4 | 6 | 6 | 3 | 4 | 4 | 5 | 5 | 6 | 10 | 13 | 24 | 59 | 124 | 186 | FP signal ([1]; compound 0.0005 M): 230; FP signal ([1]; compound 0.001 M): 257; stabilizing effect on the 14-3-3/CFTR interaction in cells (pull-down) [2]: did not show a stabilizing effect; also recorded: did not enhance binding of 14-3-3
CN1CC(=O)NC(CCCNC(=N)N)C(=O)NC(CCC(N)=O)C(=O)NC(CCCNC(=N)N)C(=O)NCc2ccccc2-c2cccc(c2)C1 (stereo not drawn) [CY007491] | 4 | 5 | 5 | 6 | 4 | 6 | 3 | 5 | 8 | 6 | 5 | 5 | 6 | 7 | 7 | 9 | 18 | 35 | 83 | 142 | FP signal ([1]; compound 0.0005 M): 193; FP signal ([1]; compound 0.001 M): 240; stabilizing effect on the 14-3-3/CFTR interaction in cells (pull-down) [2]: did not show a stabilizing effect; also recorded: did not enhance binding of 14-3-3
C=CC(C)(C)OC[C@H]1O[C@H](O[C@@H]2C3=C([C@H](C)COC(C)=O)C[C@H](O)[C@]3(C)/C=C3/[C@@H](COC)CC[C@H]3[C@@H](C)[C@H]2O)[C@H](O)[C@@H](OC(C)=O)[C@@H]1O [FC-A, fusicoccin A, reference compound] | 1 | 5 | 0 | 3 | 3 | 2 | 2 | 1 | 1 | 2 | 4 | 5 | 6 | 15 | 23 | 37 | 53 | 70 | 91 | 104 | FP signal ([1]; compound 0.0005 M): 116; FP signal ([1]; compound 0.001 M): 133; Polarization in the absence of 14-3-3, background subtracted ([1]; compound 7.8125e-7 M): 1.367 and 0.6667 and -0.1333; Polarization in the absence of 14-3-3, background subtracted ([1]; compound 1.5625e-6 M): 0.1667 and 0.6667 and 0.3667; Polarization in the absence of 14-3-3, background subtracted ([1]; compound 3.125e-6 M): 0.06667 and -0.03333 and 0.6667; Polarization in the absence of 14-3-3, background subtracted ([1]; compound 6.25e-6 M): 0.06667 and -0.2333 and -0.3333; Polarization in the absence of 14-3-3, background subtracted ([1]; compound 1.25e-5 M): 0.5667 and 0.6667 (2×); Polarization in the absence of 14-3-3, background subtracted ([1]; compound 2.5e-5 M): -0.03333 and 0.6667 and 0.8667; Polarization in the absence of 14-3-3, background subtracted ([1]; compound 5e-5 M): 1.667 and 1.067 and 1.267; Polarization in the absence of 14-3-3, background subtracted ([1]; compound 0.0001 M): 1.667 and 1.167 and 2.267
